Experimental findings from PMC9926489, “Chemical Optimization of Selective Pseudomonas aeruginosa LasB Elastase Inhibitors and Their Impact on LasB-Mediated Activation of IL-1β in Cellular and Animal Infection Models” (ACS Infectious Diseases, 2023) are described below.

Like-named read-outs stand apart in the source and are kept apart here.

In assay [1] the target is T1, rabbit angiotensin-converting enzyme (ACE) (Oryctolagus cuniculus, UniProt P12822).
T1 construct: purchased Sigma
T1 sequence (P12822 34-1310): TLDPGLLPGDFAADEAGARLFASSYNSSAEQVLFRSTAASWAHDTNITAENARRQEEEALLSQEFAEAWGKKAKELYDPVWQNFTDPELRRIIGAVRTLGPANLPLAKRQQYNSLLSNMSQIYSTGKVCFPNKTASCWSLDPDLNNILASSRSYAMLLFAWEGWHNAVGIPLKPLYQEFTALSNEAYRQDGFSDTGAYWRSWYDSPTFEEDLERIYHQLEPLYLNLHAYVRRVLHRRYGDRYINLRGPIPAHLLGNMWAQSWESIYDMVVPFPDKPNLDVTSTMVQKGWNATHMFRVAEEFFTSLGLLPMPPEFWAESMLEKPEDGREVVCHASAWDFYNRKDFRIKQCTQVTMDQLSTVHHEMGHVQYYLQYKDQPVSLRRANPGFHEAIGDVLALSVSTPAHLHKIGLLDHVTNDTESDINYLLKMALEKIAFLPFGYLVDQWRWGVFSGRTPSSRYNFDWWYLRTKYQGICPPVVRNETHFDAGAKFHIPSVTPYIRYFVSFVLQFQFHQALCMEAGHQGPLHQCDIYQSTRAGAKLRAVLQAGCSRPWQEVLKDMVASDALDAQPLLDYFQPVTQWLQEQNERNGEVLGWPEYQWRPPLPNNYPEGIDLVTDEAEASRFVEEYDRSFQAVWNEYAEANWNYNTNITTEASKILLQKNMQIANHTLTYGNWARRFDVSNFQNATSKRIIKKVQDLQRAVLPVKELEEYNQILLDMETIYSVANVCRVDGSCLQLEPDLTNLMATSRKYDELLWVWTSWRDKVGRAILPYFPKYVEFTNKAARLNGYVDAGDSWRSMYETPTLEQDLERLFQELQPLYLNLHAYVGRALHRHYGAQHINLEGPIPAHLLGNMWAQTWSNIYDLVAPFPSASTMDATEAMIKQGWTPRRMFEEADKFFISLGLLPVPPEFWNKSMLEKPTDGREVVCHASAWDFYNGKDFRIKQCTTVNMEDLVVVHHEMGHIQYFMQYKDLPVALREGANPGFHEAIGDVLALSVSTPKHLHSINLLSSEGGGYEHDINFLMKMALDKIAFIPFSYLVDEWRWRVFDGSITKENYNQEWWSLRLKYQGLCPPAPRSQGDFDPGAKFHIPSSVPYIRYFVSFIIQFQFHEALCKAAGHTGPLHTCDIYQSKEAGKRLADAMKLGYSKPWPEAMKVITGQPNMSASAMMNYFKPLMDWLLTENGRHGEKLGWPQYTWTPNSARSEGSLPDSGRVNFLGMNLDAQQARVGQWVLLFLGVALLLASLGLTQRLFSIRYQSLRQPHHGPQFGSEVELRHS
Briefly: ACE selectivity assay. Type of assay: biochemical. On the procedure: (§1) Selectivity of compound inhibition was evaluated against other proteases at concentrations between 0.4 and 200 μM. Activity against rabbit angiotensin-converting enzyme (ACE, Sigma) was assessed using 10 μM fluorogenic substrate Abz-Phe-Arg-Lys(Dnp)-P (Enzo Life Sciences) in 100 mM Tris-HCl pH 7, 50 mM NaCl, 10 μM Zn SO4. Activity against human matrix metalloproteases (MMP)-2 and MMP-9 was assessed in 50 mM HEPES pH 7.5, 10 mM CaCl2, 0.01% Triton X-100 using 4 μM fluorogenic substrate Mca-Pro-Leu-Gly-Leu-Dpa-Ala-Arg-NH2 (Enzo Life Sciences). Activity against MMP-1 and MMP-13 was assessed in 25 mM HEPES pH 7.5, 100 mM NaCl, 100 mM CaCl2, 0.0005% Brij using 7.5 μM fluorogenic substrate Mca-Lys-Pro-Leu-Gly-Leu-Dpa-Ala-Arg-NH2 (Sigma) for MMP-1 and 1.25 μM fluorogenic substrate Mca-Pro-Cha-Gly-Nva-His-Ala-Dpa-NH2 (Millipore) for MMP-13. Activity against human neutrophil elastase (HNE, Enzo Life Sciences) was assessed in 100 mM HEPES pH 7.5, 500 mM NaCl, 0.01% of Triton X-100 using 100 μM fluorogenic substrate MeOSuc-AAPV-AMC (Enzo Life Sciences).

For a further assay, the target named is MMP-13 (Homo sapiens, UniProt P45452). Briefly: MMP-13 selectivity assay. Type of assay: biochemical. As to conditions: human MMP-13. The protocol: as §1
The target in assay [2] is T2, human neutrophil elastase (HNE) (Homo sapiens, UniProt P08246).
T2 construct: purchased Enzo Life Sciences
T2 sequence (P08246 30-267): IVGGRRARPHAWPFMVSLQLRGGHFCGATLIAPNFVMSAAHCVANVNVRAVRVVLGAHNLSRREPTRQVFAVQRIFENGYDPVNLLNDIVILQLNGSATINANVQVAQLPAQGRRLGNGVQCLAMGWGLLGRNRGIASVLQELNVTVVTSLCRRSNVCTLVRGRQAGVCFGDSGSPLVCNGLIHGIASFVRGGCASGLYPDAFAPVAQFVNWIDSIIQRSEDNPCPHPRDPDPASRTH
Briefly: HNE selectivity assay. Type of assay: biochemical. On the procedure: as §1

For a further assay, the target named is T3, LasB T65I (Pseudomonas aeruginosa, UniProt P14756).
T3 construct: endogenous in cells; host or cells: P. aeruginosa clinical CF isolate, culture supernatant
T3 sequence (P14756 198-498, stated change not applied): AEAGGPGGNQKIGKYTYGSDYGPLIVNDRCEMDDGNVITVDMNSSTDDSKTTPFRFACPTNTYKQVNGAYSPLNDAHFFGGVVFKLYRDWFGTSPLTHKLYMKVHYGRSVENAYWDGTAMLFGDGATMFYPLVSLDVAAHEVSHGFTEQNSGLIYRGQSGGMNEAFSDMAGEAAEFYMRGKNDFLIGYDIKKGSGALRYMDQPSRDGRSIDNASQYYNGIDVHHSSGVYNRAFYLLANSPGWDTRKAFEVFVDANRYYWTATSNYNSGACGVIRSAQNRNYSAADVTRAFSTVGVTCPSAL
Description: LasB variant inhibition, culture supernatant: T65I. Type of assay: biochemical, P. aeruginosa. The text has this: (§2) Compounds 12 and 16 were discovered as a result of optimizing potency against the LasB protein expressed from the wild-type (WT) reference strain P. aeruginosa PAO1. To understand the relative prevalence of the WT LasB protein versus other variants in clinical respiratory P. aeruginosa strains, the full-length lasB gene was amplified by PCR from 255 clinical isolates (obtained from CF sputum samples). […] Most changes were identified in the mature peptide, however some occurred in the propeptide domain, which could affect LasB processing (marked in italics in Table 4).
(§3) LasB inhibition assays were performed using purified LasB enzyme (1 ng/well) for compound screening or using culture supernatants (prepared as described in the ECR assay) for testing LasB variants. Hydrolysis of the fluorogenic peptide substrate 2-aminobenzoyl-Ala-Gly-Leu-Ala-4-nitrobenzylamide (Abz-AGLA-Nba; Peptide International) in 50 mM Tris-HCl (pH 7.4), supplemented with 2.5 mM CaCl2 was followed using an Envision microplate reader (PerkinElmer) at 315 nm excitation and 430 nm emission. […] IC50 values were determined from Hill plots using Dotmatics Studies ELN software. For the mechanism of inhibition studies, hydrolysis rates were measured in the presence of variable concentrations of substrate and inhibitor, and the inhibition constant (Ki) was determined using Dixon plot analysis.[31]

A further assay concerns the target T4, LasB S460T (Pseudomonas aeruginosa, UniProt P14756, S460T).
T4 construct: Most changes were identified in the mature peptide, however some occurred in the propeptide domain; endogenous in cells; host or cells: P. aeruginosa clinical CF isolate, culture supernatant
Briefly: LasB variant inhibition, culture supernatant: S460T. Type of assay: biochemical, P. aeruginosa.
Source text: as §2, §3

T4 sequence (P14756 198-498 S460T): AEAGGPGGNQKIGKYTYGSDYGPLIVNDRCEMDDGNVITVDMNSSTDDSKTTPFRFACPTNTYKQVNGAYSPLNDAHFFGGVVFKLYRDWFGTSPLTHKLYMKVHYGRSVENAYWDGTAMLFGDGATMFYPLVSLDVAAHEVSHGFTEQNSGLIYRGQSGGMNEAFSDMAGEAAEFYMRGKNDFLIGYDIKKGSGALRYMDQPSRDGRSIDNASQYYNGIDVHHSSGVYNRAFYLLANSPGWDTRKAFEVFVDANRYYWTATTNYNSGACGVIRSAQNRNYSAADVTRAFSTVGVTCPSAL

In the case of `COc1cc2sc(CNC(=O)C3(CC(=O)O)Cc4cc(F)c(F)cc4C3)nc2cc1OCCC[N+](C)(CCO)CCO` [Compound 16], the concentration for half-maximal inhibition (IC50) in assay [1] is over 200 µM; against MMP-13, over 100 µM; in assay [2], over 200 µM; at LasB T65I it was 182 nM; against LasB S460T, 201 nM.

On to `COc1cc2sc(CNC(=O)C3(CC(=O)O)Cc4ccccc4C3)nc2cc1OCCC[N+](C)(C)C` [Compound 12], for which the half-inhibitory concentration (IC50) is over 200 µM in assay [1] (rabbit ACE, read-out: selectivity IC50, ACE); over 100 µM against MMP-13; over 200 µM in assay [2]; 216 nM at LasB T65I; 211 nM at LasB S460T.

As usually defined, the IC50 is the concentration that gives 50% inhibition.
